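Interpolation was linear, between the two tested concentrations surrounding the appropriate level; five concentrations were tested over 48 hours in 96-well plates. Abbreviation: GI50, concentration required for 50% inhibition of growth.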 Active and inactive are the calls of the source. Cut-off read from the data, not from the text of the source: active = GI50 up to about 1.1 µM and inactive = higher.
Tests used:
Assay in all cases: inhibition of tumour cell growth, NCI panel, 48 h
786-0 = test system: 786-0
A498 = test system: A498
A549 = test system: A549
ACHN = test system: ACHN
CAKI-1 = test system: CAKI-1
CCRF-CEM = test system: CCRF-CEM
COLO 205 = test system: COLO 205
DLD-1 = test system: DLD-1
DMS-114 = test system: DMS-114
DMS-273 = test system: DMS-273
EKVX = test system: EKVX
HCC 2998 = test system: HCC 2998
HCT-116 = test system: HCT-116
HCT-15 = test system: HCT-15
HL-60 = test system: HL-60
HOP-18 = test system: HOP-18
HOP-62 = test system: HOP-62
HOP-92 = test system: HOP-92
HT-29 = test system: HT-29
IGROV-1 = test system: IGROV-1
K562 = test system: K562
KM-20L2 = test system: KM-20L2
KM12 = test system: KM12
LOX IMVI = test system: LOX IMVI
LXFL 529 = test system: LXFL 529
M14 = test system: M14
M19-MEL = test system: M19-MEL
MOLT-4 = test system: MOLT-4
Malme-3M = test system: Malme-3M
NCI-H226 = test system: NCI-H226
NCI-H23 = test system: NCI-H23
NCI-H460 = test system: NCI-H460
NCI-H522 = test system: NCI-H522
OVCAR-3 = test system: OVCAR-3
OVCAR-4 = test system: OVCAR-4
OVCAR-5 = test system: OVCAR-5
OVCAR-8 = test system: OVCAR-8
RPMI-8226 = test system: RPMI-8226
RXF 393 = test system: RXF 393
RXF 631 = test system: RXF 631
SF-268 = test system: SF-268
SF-295 = test system: SF-295
SF-539 = test system: SF-539
SK-MEL-28 = test system: SK-MEL-28
SK-MEL-2 = test system: SK-MEL-2
SK-MEL-5 = test system: SK-MEL-5
SK-OV-3 = test system: SK-OV-3
SN12C = test system: SN12C
SNB-19 = test system: SNB-19
SNB-75 = test system: SNB-75
SNB-78 = test system: SNB-78
SR = test system: SR
SW-620 = test system: SW-620
TK-10 = test system: TK-10
U-251 = test system: U-251
UACC-257 = test system: UACC-257
UACC-62 = test system: UACC-62
UO-31 = test system: UO-31
XF498 = test system: XF498

Compound: O=C1C2C3C=CC(C2C(=O)N1CN1CCSCC1)C1C2C(=O)N(CN4CCSCC4)C(=O)C2C31 (centres undefined)
- GI50 (786-0): > 52.4 µM (inactive)
- GI50 (A498): > 100 µM (inactive)
- GI50 (A549): 62.1 µM (inactive)
- GI50 (ACHN): > 77.6 µM (inactive)
- GI50 (CAKI-1): > 100 µM (inactive)
- GI50 (CCRF-CEM): 45.9 µM (inactive)
- GI50 (COLO 205): 56.5 µM (inactive)
- GI50 (DLD-1): > 51.4 µM (inactive)
- GI50 (DMS-114): 38.8 µM (inactive)
- GI50 (DMS-273): > 43.5 µM (inactive)
- GI50 (EKVX): > 100 µM (inactive)
- GI50 (HCC 2998): > 100 µM (inactive)
- GI50 (HCT-116): > 41.2 µM (inactive)
- GI50 (HCT-15): 34.8 µM
- GI50 (HL-60): 29.9 µM (inactive)
- GI50 (HOP-18): 41.2 µM (inactive)
- GI50 (HOP-62): > 100 µM (inactive)
- GI50 (HOP-92): > 75.5 µM (inactive)
- GI50 (HT-29): > 74 µM (inactive)
- GI50 (IGROV-1): > 100 µM (inactive)
- GI50 (K562): > 100 µM (inactive)
- GI50 (KM-20L2): > 76.2 µM (inactive)
- GI50 (KM12): > 100 µM (inactive)
- GI50 (LOX IMVI): > 53.5 µM (inactive)
- GI50 (LXFL 529): > 100 µM (inactive)
- GI50 (M14): > 100 µM (inactive)
- GI50 (M19-MEL): > 100 µM (inactive)
- GI50 (MOLT-4): > 78.5 µM (inactive)
- GI50 (Malme-3M): > 100 µM (inactive)
- GI50 (NCI-H226): > 100 µM (inactive)
- GI50 (NCI-H23): > 100 µM (inactive)
- GI50 (NCI-H460): 31.2 µM (inactive)
- GI50 (NCI-H522): > 100 µM (inactive)
- GI50 (OVCAR-3): > 100 µM (inactive)
- GI50 (OVCAR-4): > 100 µM (inactive)
- GI50 (OVCAR-5): > 100 µM (inactive)
- GI50 (OVCAR-8): > 94.2 µM (inactive)
- GI50 (RPMI-8226): 25.5 µM (inactive)
- GI50 (RXF 393): > 100 µM (inactive)
- GI50 (RXF 631): > 100 µM (inactive)
- GI50 (SF-268): > 50.4 µM (inactive)
- GI50 (SF-295): > 100 µM (inactive)
- GI50 (SF-539): > 100 µM (inactive)
- GI50 (SK-MEL-28): > 100 µM (inactive)
- GI50 (SK-MEL-2): > 100 µM (inactive)
- GI50 (SK-MEL-5): > 100 µM (inactive)
- GI50 (SK-OV-3): > 100 µM (inactive)
- GI50 (SN12C): 97.9 µM (inactive)
- GI50 (SNB-19): > 100 µM (inactive)
- GI50 (SNB-75): 45.3 µM (inactive)
- GI50 (SNB-78): > 100 µM (inactive)
- GI50 (SR): 39.7 µM (inactive)
- GI50 (SW-620): 31.7 µM (inactive)
- GI50 (TK-10): > 100 µM (inactive)
- GI50 (U-251): > 72.1 µM (inactive)
- GI50 (UACC-257): > 100 µM (inactive)
- GI50 (UACC-62): > 100 µM (inactive)
- GI50 (UO-31): > 100 µM (inactive)
- GI50 (XF498): > 100 µM (inactive)

— ChEMBL document CHEMBL1201862, “PubChem BioAssay data set” (2004)
